Reference: ChEMBL document CHEMBL1201862, “PubChem BioAssay data set” (2004)
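Compound exposure: 48 hours, 5 concentrations, 96-well plates. GI50 = concentration required for 50% inhibition of growth.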 Activity calls are given as the source filed them. Cut-off read from the data, not from the text of the source: active = GI50 up to about 1.1 µM and inactive = higher.

Key:
Test in all cases: DTP human tumour cell line panel, 48 h
[1] = tested on: 786-0
[2] = tested on: A498
[3] = tested on: EKVX
[4] = tested on: HOP-62
[5] = tested on: HT-29
[6] = tested on: LOX IMVI
[7] = tested on: M14
[8] = tested on: MCF7
[9] = tested on: MOLT-4
[10] = tested on: Malme-3M
[11] = tested on: NCI-H522
[12] = tested on: OVCAR-4
[13] = tested on: OVCAR-8
[14] = tested on: SK-MEL-5
[15] = tested on: SK-OV-3
[16] = tested on: SNB-19
[17] = tested on: SNB-75
[18] = tested on: UACC-62
[19] = tested on: SK-MEL-2
[20] = tested on: SR

SMILES: Nc1ccc(S(=O)(=O)c2ccc(NC(=O)c3cccnc3)cc2)cc1
- GI50 [1]: > 100 µM (inactive)
- GI50 [2]: > 100 µM (inactive)
- GI50 [3]: 64.9 µM (inactive)
- GI50 [4]: > 100 µM (inactive)
- GI50 [5]: > 100 µM (inactive)
- GI50 [6]: > 100 µM (inactive)
- GI50 [7]: > 100 µM (inactive)
- GI50 [8]: > 100 µM (inactive)
- GI50 [9]: 57.5 µM (inactive)
- GI50 [10]: > 100 µM (inactive)
- GI50 [11]: 53.2 µM (inactive)
- GI50 [12]: 62.4 µM (inactive)
- GI50 [13]: > 100 µM (inactive)
- GI50 [14]: 42.4 µM (inactive)
- GI50 [15]: > 100 µM (inactive)
- GI50 [16]: > 100 µM (inactive)
- GI50 [17]: 30.8 µM (inactive)
- GI50 [18]: > 100 µM (inactive)

SMILES: CSc1nn(C)cc2ncnc1-2
- GI50 [1]: > 100 µM (inactive)
- GI50 [2]: > 100 µM (inactive)
- GI50 [3]: > 100 µM (inactive)
- GI50 [4]: > 100 µM (inactive)
- GI50 [5]: > 100 µM (inactive)
- GI50 [7]: > 100 µM (inactive)
- GI50 [8]: > 100 µM (inactive)
- GI50 [9]: > 100 µM (inactive)
- GI50 [13]: > 100 µM (inactive)
- GI50 [19]: > 100 µM (inactive)
- GI50 [14]: > 100 µM (inactive)
- GI50 [16]: > 100 µM (inactive)
- GI50 [17]: 0.206 µM (active)
- GI50 [20]: 97.1 µM (inactive)
- GI50 [18]: > 100 µM (inactive)

SMILES: COc1cc(/C=C2\C[C@H]3[C@@H]4CC=C5C[C@@H](O)CC[C@]5(C)[C@H]4CC[C@]3(C)[C@H]2O)cc(OC)c1OC
- GI50 [1]: 10.8 µM (inactive)
- GI50 [2]: 20.9 µM (inactive)
- GI50 [3]: 34 µM (inactive)
- GI50 [4]: 10.8 µM (inactive)
- GI50 [5]: 11.1 µM (inactive)
- GI50 [6]: 8.53 µM (inactive)
- GI50 [7]: 20.7 µM (inactive)
- GI50 [8]: 8.34 µM (inactive)
- GI50 [9]: 5.5 µM (inactive)
- GI50 [10]: 33.1 µM (inactive)
- GI50 [11]: 19.1 µM (inactive)
- GI50 [12]: 7.45 µM (inactive)
- GI50 [13]: 19 µM (inactive)
- GI50 [19]: 12.7 µM (inactive)
- GI50 [14]: 6.28 µM (inactive)
- GI50 [15]: 25.5 µM (inactive)
- GI50 [16]: 50.1 µM (inactive)
- GI50 [17]: 9.06 µM (inactive)
- GI50 [18]: 10.3 µM (inactive)

SMILES: CC(=O)OCC1OC(O[C@@H]2C[C@H]3C(C)(C)[C@@H](OC(C)=O)CC[C@]3(C)[C@H]3CC[C@]45C[C@]4(CC[C@H]5[C@@H](C)C[C@@H](O)[C@H](O)C(C)(C)F)[C@@]32C)C(O)C(O)C1O (stereo partly drawn)
- GI50 [1]: 1.69 µM (inactive)
- GI50 [2]: 18.2 µM (inactive)
- GI50 [3]: 1.61 µM (inactive)
- GI50 [4]: 50 µM (inactive)
- GI50 [5]: 1.64 µM (inactive)
- GI50 [6]: 1.77 µM (inactive)
- GI50 [7]: 1.76 µM (inactive)
- GI50 [8]: 12.6 µM (inactive)
- GI50 [9]: 1.92 µM (inactive)
- GI50 [10]: 1.71 µM (inactive)
- GI50 [11]: 1.68 µM (inactive)
- GI50 [12]: 65.9 µM (inactive)
- GI50 [13]: 2.34 µM (inactive)
- GI50 [14]: 1.72 µM (inactive)
- GI50 [15]: 42.2 µM (inactive)
- GI50 [16]: 1.68 µM (inactive)
- GI50 [18]: 23.9 µM (inactive)

SMILES: Cc1cccc(C)c1NC(=O)/C(Cc1nc2ccc([N+](=O)[O-])cc2nc1O)=N\NC(N)=O
- GI50 [1]: > 100 µM (inactive)
- GI50 [2]: 82.4 µM (inactive)
- GI50 [3]: 64.6 µM (inactive)
- GI50 [5]: > 100 µM (inactive)
- GI50 [6]: 22.1 µM (inactive)
- GI50 [7]: > 100 µM (inactive)
- GI50 [8]: 63.1 µM (inactive)
- GI50 [9]: 31.6 µM (inactive)
- GI50 [10]: > 100 µM (inactive)
- GI50 [11]: 31.6 µM (inactive)
- GI50 [12]: 90.6 µM (inactive)
- GI50 [13]: > 100 µM (inactive)
- GI50 [19]: > 100 µM (inactive)
- GI50 [14]: > 100 µM (inactive)
- GI50 [15]: > 100 µM (inactive)
- GI50 [16]: > 100 µM (inactive)
- GI50 [17]: > 100 µM (inactive)
- GI50 [18]: 80.9 µM (inactive)

SMILES: S=C(N/N=C(/c1ccccc1)c1ccccn1)N1CCCCCC1
- GI50 [1]: < 0.0265 µM (active)
- GI50 [2]: 0.269 µM (active)
- GI50 [3]: < 0.0329 µM (active)
- GI50 [4]: 0.0514 µM (active)
- GI50 [5]: < 0.0141 µM (active)
- GI50 [7]: 0.001 µM (active)
- GI50 [8]: 0.0569 µM (active)
- GI50 [9]: < 0.0134 µM (active)
- GI50 [10]: < 0.0295 µM (active)
- GI50 [11]: 0.0731 µM (active)
- GI50 [12]: 0.127 µM (active)
- GI50 [13]: < 0.0256 µM (active)
- GI50 [19]: 0.489 µM (active)
- GI50 [14]: < 0.0228 µM (active)
- GI50 [15]: < 0.027 µM (active)
- GI50 [16]: 0.308 µM (active)
- GI50 [17]: 0.036 µM (active)
- GI50 [18]: 0.0476 µM (active)

SMILES: O=c1cc(NCC2CCCCC2)[nH]c(=O)[nH]1
- GI50 [1]: > 100 µM (inactive)
- GI50 [2]: > 100 µM (inactive)
- GI50 [3]: > 100 µM (inactive)
- GI50 [4]: > 100 µM (inactive)
- GI50 [6]: > 100 µM (inactive)
- GI50 [7]: > 100 µM (inactive)
- GI50 [8]: > 100 µM (inactive)
- GI50 [10]: > 100 µM (inactive)
- GI50 [12]: > 100 µM (inactive)
- GI50 [13]: > 100 µM (inactive)
- GI50 [14]: > 100 µM (inactive)
- GI50 [16]: > 100 µM (inactive)
- GI50 [17]: > 100 µM (inactive)
- GI50 [20]: > 100 µM (inactive)

SMILES: N#CC1=C(N)OC(c2cccc([N+](=O)[O-])c2)C1(C#N)C#N (stereo not drawn)
- GI50 [1]: 14.9 µM (inactive)
- GI50 [2]: 19.7 µM (inactive)
- GI50 [3]: 22.1 µM (inactive)
- GI50 [4]: 18.9 µM (inactive)
- GI50 [5]: 19.1 µM (inactive)
- GI50 [6]: 15.1 µM (inactive)
- GI50 [7]: 25.8 µM (inactive)
- GI50 [8]: 20.8 µM (inactive)
- GI50 [10]: 18.3 µM (inactive)
- GI50 [11]: 14.2 µM (inactive)
- GI50 [13]: 29.4 µM (inactive)
- GI50 [19]: 21.3 µM (inactive)
- GI50 [14]: 18 µM (inactive)
- GI50 [15]: 70.3 µM (inactive)
- GI50 [16]: 21.8 µM (inactive)
- GI50 [17]: 0.78 µM (active)
- GI50 [18]: 26.6 µM (inactive)

SMILES: NC(=O)CC(N)C(=O)NC(Cc1ccccc1)C(=O)NC(Cc1ccccc1)NC(=O)C(Cc1c[nH]c2ccccc12)C(=O)O (stereo not drawn)
- GI50 [1]: > 100 µM (inactive)
- GI50 [2]: > 100 µM (inactive)
- GI50 [3]: > 100 µM (inactive)
- GI50 [4]: > 100 µM (inactive)
- GI50 [5]: > 100 µM (inactive)
- GI50 [6]: > 100 µM (inactive)
- GI50 [7]: > 100 µM (inactive)
- GI50 [8]: > 100 µM (inactive)
- GI50 [9]: > 100 µM (inactive)
- GI50 [10]: > 100 µM (inactive)
- GI50 [11]: > 100 µM (inactive)
- GI50 [12]: > 100 µM (inactive)
- GI50 [13]: > 100 µM (inactive)
- GI50 [19]: > 100 µM (inactive)
- GI50 [14]: 49.4 µM (inactive)
- GI50 [15]: > 100 µM (inactive)
- GI50 [16]: > 100 µM (inactive)
- GI50 [17]: 71.8 µM (inactive)
- GI50 [18]: > 100 µM (inactive)

SMILES: COc1c(Cl)nc2ccccc2c1N=[N+]=[N-]
- GI50 [1]: > 100 µM (inactive)
- GI50 [2]: 12.4 µM (inactive)
- GI50 [4]: 39.7 µM (inactive)
- GI50 [5]: > 100 µM (inactive)
- GI50 [6]: 48.6 µM (inactive)
- GI50 [7]: > 100 µM (inactive)
- GI50 [8]: > 100 µM (inactive)
- GI50 [9]: 19.2 µM (inactive)
- GI50 [10]: > 100 µM (inactive)
- GI50 [12]: > 100 µM (inactive)
- GI50 [14]: 40.5 µM (inactive)
- GI50 [15]: > 100 µM (inactive)
- GI50 [16]: > 100 µM (inactive)
- GI50 [17]: 63 µM (inactive)
- GI50 [20]: 80 µM (inactive)
- GI50 [18]: 54.2 µM (inactive)

SMILES: COc1ccc(C(=O)N2CCc3c([nH]c4ccccc34)C2C(=O)O)o1 (stereo not drawn)
- GI50 [1]: > 10 µM (inactive)
- GI50 [2]: > 10 µM (inactive)
- GI50 [3]: > 10 µM (inactive)
- GI50 [4]: > 10 µM (inactive)
- GI50 [5]: > 10 µM (inactive)
- GI50 [7]: > 10 µM (inactive)
- GI50 [8]: > 10 µM (inactive)
- GI50 [9]: > 10 µM (inactive)
- GI50 [10]: > 10 µM (inactive)
- GI50 [12]: > 10 µM (inactive)
- GI50 [13]: > 10 µM (inactive)
- GI50 [14]: > 10 µM (inactive)
- GI50 [15]: > 10 µM (inactive)
- GI50 [16]: > 10 µM (inactive)
- GI50 [17]: > 10 µM (inactive)
- GI50 [20]: > 10 µM (inactive)
- GI50 [18]: > 10 µM (inactive)
